Values after ≈ are worked out from the molar mass of the structure shown.
Tests used:
Solubility = format: physicochemical; conditions: buffer, pH 7.4, aqueous buffer, kinetic from dmso stock
Source text: A standard panel of in vitro ADME assays will be utilized to assess drug-like properties of compounds and to inform subsequent in vivo PK studies. These assays include: (a) Permeability: MDCK (Madin Darby Canine Kidney) cells transfected with the MDR1 gene encoding for the multi-drug resistant transporter (Pgp) will be utilized to determine a compound's ability to permeate the membrane in apical to basolateral (A-B) and basolateral to apical (B-A) directions. The derived apparent permeability coefficient (Papp) provides an estimate of passive permeability; a ratio of Papp in the B-A/A-B direction gives an estimate of transporter efflux; (b) Solubility: Kinetic solubility is an important parameter for accurate determinations of the dose response. This is estimated using the shake flask method with a μSol Explorer (PION, Billerica, Mass.) at pH 7.4. Compounds are added as a DMSO solution to buffer. The average of two determinations at pH 7.4 will be reported. Solubility at pH 7.4 is relevant for in vitro assays; (c) Metabolic Stability: The potential for a high metabolic clearance compound is estimated using a liver microsome assay. […] The disappearance of the parent molecule is measured by liquid chromatography/mass spectroscopy (LC/MS) detection. […]

In vivo PK (I.V./P.O.) = assay: In vivo PK (I.V./P.O.); design: species or system mice
Protocol: Before the studies above were initiated, congenic SOD1 G93A mice were dosed with 50 mg/kg of compound no. 1 and compound no. 2 via I.P. injection to rule out any toxicity issues prior to initiating the efficacy study (FIG. 4A-C).
The experiments will involve the administration of compounds to 5-6 week old CD1 male mice. Mice are dosed by either a 1 mg/kg IV bolus or 5 mg/kg oral gavage. Blood samples are collected by cardiac puncture at 0, 0.25, 0.5, 1, 2, 4, 6, 8, 12, and 24 hrs. There will be three mice per time point. Plasma concentration over time will be determined by LC/MS from which the standard PK parameters of clearance, volume of distribution, t1/2 and % F can be derived using WinNoLin software (Pharsight Inc.). This will require a total of 60 mice per compound. Plasma will be analyzed by reverse phase chromatography with MS/MS detection operating in the positive ion mode using multiple reaction monitoring using an internal standard and Applied Biosystems Analyst 1.4 software. Peak time (when maximum plasma drug concentration occurs), peak drug level [approximate maximum concentrations of drug in plasma (Cmax)] and t1/2 for drug elimination will be estimated for each tested compound. Bioavailability (F) will be calculated from the ratio of AUCPO/AUCIV and expressed as a percentage. To determine levels in brain, six additional mice will be dosed with 1 mg/kg I.V. and sacrificed at 0.25 and 1 hr. Brain and spinal cord samples will be collected at these two time points, quick frozen in an ice box and kept at −75±15° C. All samples will be weighed and homogenized with phosphate buffered saline (PBS) by brain weight (g) to PBS volume (mL) ratio 1:3 before analysis. The actual concentration is the detected value multiplied by the dilution factor.

O=C(O)c1cccc(-c2cnc(Nc3ccccc3F)o2)c1 [Compound 40, 3-(2-((2-Fluorophenyl)amino)oxazol-5-yl)benzoic Acid]
solubility (Solubility): 56 µM (≈ 16.7 µg/mL)
half-life (In vivo PK (I.V./P.O.); male, CD1, mouse, plasma, iv, 1 mg/kg, I.V., read-out: I.V. t1/2 (converted)): 1.4 h
orally bioavailable (In vivo PK (I.V./P.O.); oral): 16%
